Laboratory results taken from patent US12264134B2 (Merck Sharp & Dohme LLC, priority 2018, dated 2025).

Molecular target: IDO1 (Homo sapiens, UniProt P14902)
Experiment: IDO1 Cellular Assay in HeLa Cells Stimulated with IFNγ
Format: cell-based
Settings: read-out: HeLa Cell Potency, IC50
Description: IDO1 Cellular Assay in HeLa Cells Stimulated with IFNγ
HeLa cells were cultured in complete HeLa culture medium (90% EMEM, 10% heat-inactivated fetal bovine serum) and expanded to about 1×10^9 cells. The cells were then collected and frozen down at 1×10^7 cells/vial in 1 mL frozen medium (90% complete HeLa culture medium, 10% DMSO).
Compounds to be tested were serially diluted in ten 3-fold steps in DMSO starting from 10 mM DMSO stocks in Echo low volume plate(s). Compound dilutions or DMSO alone were then dispensed from the dilution plate(s) into Greiner black 384-well assay plate(s) (catalog #781086, 50 nL/well) using an Echo 550 acoustic liquid handler (Labcyte).
Frozen HeLa cells were thawed and transferred into HeLa assay medium (99% complete HeLa culture medium, 1% Pen/Strep) with 20 mL medium/vial of cells. The cells were spun down at 250 g in a table top centrifuge for 5 min and suspended in same volume of HeLa assay medium. The cells were then counted and adjusted to a density of 2×10^5 cells/mL in HeLa assay medium. Sterile L-tryptophan were added to the cells with final concentration of 300 uM L-tryptophan. A small aliquot (2 mL/plate) of HeLa cells were set aside and were not treated with IFNγ, to serve as the Max-E control.
HeLa cells with and without IFNγ were dispensed to the respective wells of 384-well assay plates containing the compounds. The plates were incubated for about 48 hours at a 37° C., 5% CO2 incubator. Afterwards, 12 μL of 0.5 M methyl isonipecotate in dimethyl sulfoxide were added into each well and the plates were sealed and incubated at 37° C. without CO2 overnight. The plates were centrifuged for 1 min at 200×g. The resulting fluorescence was measured in a Spectramax plate reader (Molecular Devices) with a 400 nm excitation filter and a 510 nm emission filter.
The fluorescence intensity of each well was corrected for the background observed in wells with non-IFNγ-treated cells and was expressed as a fraction of the intensity observed in wells of IFNγ-treated cells and DMSO only. Potencies were calculated by linear least squares fit to the four parameter logistic IC50 equation.

IDO1, sequence (P14902 whole entry): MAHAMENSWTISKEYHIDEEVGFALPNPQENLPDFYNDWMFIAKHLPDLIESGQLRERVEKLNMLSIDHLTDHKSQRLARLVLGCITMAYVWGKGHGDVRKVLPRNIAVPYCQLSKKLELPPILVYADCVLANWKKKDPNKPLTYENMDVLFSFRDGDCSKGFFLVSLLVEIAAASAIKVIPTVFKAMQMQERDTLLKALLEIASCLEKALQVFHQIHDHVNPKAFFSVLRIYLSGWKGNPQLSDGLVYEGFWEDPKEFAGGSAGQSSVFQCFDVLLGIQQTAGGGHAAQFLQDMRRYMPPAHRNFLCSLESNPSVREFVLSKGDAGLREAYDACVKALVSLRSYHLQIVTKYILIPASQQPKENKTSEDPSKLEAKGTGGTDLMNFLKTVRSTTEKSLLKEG

IC50 [µM] | SMILES
0.0757 | Cc1cccc(N2CCN(C(=O)Cn3nc(C(=O)N4CC[C@H](O)[C@@H](F)C4)c4c3CC(O)C4)CC2)c1C (single isomer, unassigned) [Example 416]
2.95 | Cc1cccc(N2CCN(C(=O)Cn3nc(C(=O)N4CC[C@@H](O)[C@@H](F)C4)c4c3C(O)CC4)CC2)c1C (single isomer, unassigned) [Example 422]
0.195 | Cc1cccc(N2CCN(C(=O)Cn3nc(C(=O)N4CC[C@@H](O)[C@@H](F)C4)c4c3C(O)CC4)CC2)c1C (single isomer, unassigned) [Example 423]
0.302 | O=C(Cn1nc(C(=O)N2CC[C@H](O)[C@H](F)C2)c2c1CCC2)N1CCN(C2CCCc3ccccc32)CC1 (single isomer, unassigned) [Example 426]
> 10 | O=C(Cn1nc(C(=O)N2CC[C@H](O)[C@H](F)C2)c2c1CCC2)N1CCN(C2CCCc3ccccc32)CC1 (single isomer, unassigned) [Example 427]
0.183 | O=C(Cn1nc(C(=O)N2CCC(O)CC2)c2c1CCC2)N1CCN(C2CCCc3ccccc32)CC1 (single isomer, unassigned) [Example 429]
0.184 | O=C(Cn1nc(C(=O)N2CCC(O)CC2)c2c1CCC2)N1CCN(C2CCCc3ccccc32)CC1 (single isomer, unassigned) [Example 430]
3.44 | O=C(Cn1nc(C(=O)N2CCC(O)CC2)c2c1CCC2)N1CCN(C2CCCc3ccccc32)CC1 (single isomer, unassigned) [Example 431]
0.0228 | O=C(Cn1nc(C(=O)N2CCC(O)CC2)c2c1CCC2)N1CCN(C2CCc3ccccc32)CC1 (single isomer, unassigned) [Example 436, 1-(4-(2,3-dihydro-1H-inden-1-yl)piperazin-1-yl)-2-(3-(4-hydroxypiperidine-1-carbonyl)-5,6-dihydrocyclopenta[c]pyrazol-1(4H)-yl)ethanone]
0.81 | O=C(Cn1nc(C(=O)N2CCC(O)CC2)c2c1CCC2)N1CCN(C2CCc3ccccc32)CC1 (single isomer, unassigned) [Example 437, 1-(4-(2,3-dihydro-1H-inden-1-yl)piperazin-1-yl)-2-(3-(4-hydroxypiperidine-1-carbonyl)-5,6-dihydrocyclopenta[c]pyrazol-1(4H)-yl)ethanone]
0.168 | O=C(Cn1nc(C(=O)N2CC[C@H](O)[C@H](F)C2)c2c1CCC2)N1CCN(C2CCc3ccccc32)CC1 (single isomer, unassigned) [Example 439]
2.52 | O=C(Cn1nc(C(=O)N2CC[C@H](O)[C@H](F)C2)c2c1CCC2)N1CCN(C2CCc3ccccc32)CC1 (single isomer, unassigned) [Example 440]
0.0223 | Cc1cccc(N2CCN(C(=O)Cn3nc(C(=O)N4CCC(O)(CF)C4)c4c3CCC4)CC2)c1C (single isomer, unassigned) [Example 482, (R or S)-1-(4-(2,3-dimethylphenyl)piperazin-1-yl)-2-(3-(3-(fluoromethyl)-3-hydroxypyrrolidine-1-carbonyl)-5,6-dihydro-cyclopenta[c]pyrazol-1(4H)-yl)ethanone]
0.0426 | Cc1cccc(N2CCN(C(=O)Cn3nc(C(=O)N4CCC(O)(CF)C4)c4c3CCC4)CC2)c1C (single isomer, unassigned) [Example 484, (S or R)-1-(4-(2,3-dimethylphenyl)piperazin-1-yl)-2-(3-(3-fluoromethyl)-3-hydroxypyrrolidine-1-carbonyl)-5,6-dihydrocyclopenta[c] pyrazol-1(4H)-yl) ethanone]
0.393 | Cc1cccc(N2CCN(C(=O)C(C)n3nc(C(=O)N4CCC(O)CC4)c4c3CCC4)CC2)c1C (single isomer, unassigned) [Example 489, (R or S)-1-(4-(2,3-dimethylphenyl)piperazin-1-yl)-2-(3-(4-hydroxypiperidine-1-carbonyl)-5,6-dihydro-cyclopenta[c]pyrazol-1(4H)-yl)propan-1-one]
0.0775 | Cc1cccc(N2CCN(C(=O)Cn3nc(C(=O)N4CC[C@H](N5CCC(O)CC5)[C@H](F)C4)c4c3CC(F)(F)CC4)CC2)c1C (stereo in doubt) [Example 23, 2-[6,6-difluoro-3-[rac-(3R,4S)-3-fluoro-4-(4-hydroxy-1-piperidyl)piperidine-1-carbonyl]-5,7-dihydro-4H-indazol-1-yl]-1-[4-(2,3-dimethylphenyl)piperazin-1-yl]ethanone]
0.195 | Cc1cccc(N2CCN(C(=O)Cn3nc(C(=O)N4CC[C@@H](N5CCC(O)CC5)[C@@H](F)C4)c4c3CC(F)(F)CC4)CC2)c1C (stereo in doubt) [Example 24, 2-[6,6-difluoro-3-[rac-(3S,4R)-3-fluoro-4-(4-hydroxy-1-piperidyl)piperidine-1-carbonyl]-5,7-dihydro-4H-indazol-1-yl]-1-[4-(2,3-dimethylphenyl)piperazin-1-yl]ethanone]
0.00126 | Cc1c(Cl)cccc1N1CCN(C(=O)Cn2nc(C(=O)N3CC[C@H](O)C(C)C3)c3c2C[C@H]2C[C@@H]32)CC1 (stereo in doubt) [Example 351, 1-(4-(3-chloro-2-methylphenyl)piperazin-1-yl)-2-((3bR,4aR)-3-((3S,4S)-4-hydroxy-3-methylpiperidine-1-carbonyl)-3b,4,4a,5-tetrahydro-1H-cyclopropa[3,4]cyclopenta[1,2-c]pyrazol-1-yl)ethanone]
0.00118 | Cc1c(Cl)cccc1N1CCN(C(=O)Cn2nc(C(=O)N3CCC(O)C(C)C3)c3c2C[C@H]2C[C@@H]32)CC1 (stereo in doubt) [Example 353, 1-(4-(3-chloro-2-methylphenyl)piperazin-1-yl)-2-((3bR,4aR)-3-((3R,4S)-4-hydroxy-3-methylpiperidine-1-carbonyl)-3b,4,4a,5-tetrahydro-1H-cyclopropa[3,4]cyclopenta[1,2-c]pyrazol-1-yl)ethanone]
0.00301 | Cc1cccc(N2CCN(C(=O)Cn3nc(C(=O)N4CCC(O)C(F)C4)c4c3C[C@H]3C[C@@H]43)C3(CC3)C2)c1C (stereo in doubt) [Example 361, 1-(7-(2,3-dimethylphenyl)-4,7-diazaspiro[2.5]octan-4-yl)-2-((3bR,4aR)-3-((3S,4S)-3-fluoro-4-hydroxypiperidine-1-carbonyl)-3b,4,4a,5-tetrahydro-1H-cyclopropa[3,4]cyclopenta[1,2-c]pyrazol-1-yl)ethanone]
0.13 | Cc1cccc(N2CCN(C(=O)Cn3nc(C(=O)N4CCCC4)c4c3CC(C)(C)CC4)CC2)c1C [Example 3, 1-[4-(2,3-dimethylphenyl)piperazin-1-yl]-2-[6,6-dimethyl-3-(pyrrolidine-1-carbonyl)-5,7-dihydro-4H-indazol-1-yl]ethanone]
0.165 | Cc1cccc(N2CCN(C(=O)Cn3nc(C(=O)N4CCCC4)c4c3CCOC4)CC2)c1C [Example 4, 1-[4-(2,3-dimethylphenyl)piperazin-1-yl]-2-[3-(pyrrolidine-1-carbonyl)-6,7-dihydro-4H-pyrano[4,3-c]pyrazol-1-yl]ethanone]
0.00813 | Cc1cccc(N2CCN(C(=O)Cn3nc(C(=O)N4CCCC4)c4c3CCC(F)(F)C4)CC2)c1C [Example 6, 2-(5,5-difluoro-3-(pyrrolidine-1-carbonyl)-4,5,6,7-tetrahydro-1H-indazol-1-yl)-1-(4-(2,3-dimethylphenyl)piperazin-1-yl)ethanone]
